US10464963B2, “Compounds from invasive Salvinias and methods of using the same” (STEPHEN F. AUSTIN STATE UNIVERSITY, priority 2013, dated 2019)
Read-outs that look alike come from different tables or passages of the source.

Columns and labels:
[1] = tested on: human non-small cell lung cancer (A549); experiment: Cytotoxicity assay (WST-8), A549; assay type: cell-based
Protocol: (§1) PANC-1 and MRC-5 was cultured in complete growth medium according to the ATCC protocols. Cells were grown at 37° C. and 5% CO2 in humidified air.
(§2) Cytotoxicity of total extracts of S. molesta was tested against PANC-1, A549, PC-3, and MRC-5. Cytotoxicity of the fractions was determined using A549 cells, a human non-small lung cancer cell line. Fractions were tested at 25, 50, and 100 μg/mL. The isolated pure compounds were tested in each of the cultured human tumor and normal cell lines at various concentrations between 1 and 100 μM with three replications. Human tumor and normal cells were inoculated into 96 well microtiter plates in 90 μL at plating densities ranging from 5,000 to 40,000 cells/well (measured by Z2 Coulter Counter of Beckman) depending on the doubling time of individual cell lines. Cell growth and viability was measured by WST-8 (Water Soluble Tetrazolium) assays following a standard protocol (Cell Counting Kit-8, Dojindo Molecular, Maryland). The WST-8 assay measured the relative activity of mitochondrial reductase enzymes in viable cells. A control WST reading (T0) before treatment was measured, then cells were continuously exposed to isolates for 48 h. After WST added and incubated for 2 h, the amount of formazan was measured by using a microplate spectrophotometer (μQuant spectrophotometer, Bio-Tek Instruments, Inc., Vermont) at 450 nm. TC or TD represents the readings of the untreated control or with tested compounds. Percent cell-growth (G) and percent cell-growth inhibition (GI) was calculated as: G=(TD−T0/TC−T0)×100; GI=[1−(TD−T0/TC−T0)]×100 for which TD≥T0; and G=(TD−T0/T0)×100; GI=[1−(TD−T0/T0)]×100 for which TD≤T0. […] Cancer drug doxorubicin was used as the positive controls in the cell-based assays.

[2] = Cytotoxicity assay (WST-8), MRC-5; assay type: cell-based, human; settings: human
Protocol: as §1, §2

[3] = tested on: human prostate cancer (PC-3); experiment: Cytotoxicity assay (WST-8), PC-3; assay type: cell-based
Protocol: as §1, §2

[4] = tested on: human exocrine pancreatic cancer (BxPC-3); experiment: Cytotoxicity assay (WST-8), BxPC-3; assay type: cell-based
[5] = tested on: human exocrine pancreatic cancer (PANC-1); experiment: Cytotoxicity assay (WST-8), PANC-1; assay type: cell-based
Protocol: as §1, §2

human leukemia (HL-60) = experiment: Cytotoxicity assay (WST-8), HL-60; assay type: cell-based
[6] = tested on: normal human lung fibroblasts cells (MRC-5); experiment: Cytotoxicity assay (WST-8), MRC-5; assay type: cell-based
Protocol: as §1, §2

[7] = Homo sapiens, A549, 48 h, read-out: Cytotoxic activity (GI50) A549
[8] = Homo sapiens, A549, Table 1, read-out: Activity against human non-small cell lung tumor A549 (GI50) (converted)
[9] = Homo sapiens, 48 h, read-out: Cytotoxic activity (GI50) PC-3
[10] = Homo sapiens, Table 1, read-out: Activity against human prostate tumor PC-3 (GI50) (converted)
[11] = Homo sapiens, BXPC-3, 48 h, read-out: Cytotoxic activity (GI50) BxPC-3
[12] = Homo sapiens, BXPC-3, Table 1, read-out: Activity against human exocrine pancreatic tumor BxPC-3 (GI50) (converted)
[13] = Homo sapiens, PANC-1, 48 h, read-out: Cytotoxic activity (GI50) PANC-1
[14] = Homo sapiens, PANC-1, Table 1, read-out: Activity against human exocrine pancreatic tumor PANC-1 (GI50)
[15] = Homo sapiens, HL-60, 48 h, read-out: Cytotoxic activity (GI50) HL-60
[16] = Homo sapiens, HL-60, Table 1, read-out: Activity against human leukemia HL-60 (GI50) (converted)
[17] = Homo sapiens, Table 7, WST-8, 48 h exposure, mean ± S.D., read-out: Cytotoxic activity (GI50) PC-3
[18] = Homo sapiens, BXPC-3, Table 7, WST-8, 48 h exposure, mean ± S.D., read-out: Cytotoxic activity (GI50) BxPC-3
[19] = Homo sapiens, PANC-1, Table 7, WST-8, 48 h exposure, mean ± S.D., read-out: Cytotoxic activity (GI50) PANC-1
[20] = Homo sapiens, A549, Table 7, WST-8, 48 h exposure, mean ± S.D., read-out: Cytotoxic activity (GI50) A549
[21] = Homo sapiens, HL-60, Table 7, WST-8, 48 h exposure, mean ± S.D., read-out: Cytotoxic activity (GI50) HL-60

| SMILES | GI50 [1, 7] | GI50 [1, 8] | GI50 at 48 h [2] | GI50 [3, 9] | GI50 [3, 10] | GI50 [4, 11] | GI50 [4, 12] | GI50 [5, 13] | GI50 [5, 14] | GI50 (human leukemia (HL-60); [15]) | GI50 (human leukemia (HL-60); [16]) | further results |
| --- | --- | --- | --- | --- | --- | --- | --- | --- | --- | --- | --- | --- |
| CC(C)c1cc(C=O)c([C@@]2(C)CCCC(C)(C)[C@H]2C=O)cc1O [Compound 22, 12-hydroxy-6,7-secoabieta-8,11,13-triene-6,7-dial] | 93.8 ± 21.4 µM | 93.8 µM | – | – | – | – | – | – | – | – | – | – |
| CC(C)c1cc2c(cc1O)[C@@]1(C)CCCC(C)(C)C1C=C2 (stereo partly shown) [Compound 16, 6,7-dehydroferruginol] | 53.8 ± 9.65 µM | 53.8 µM | 59.2 ± 7.56 µM | 58.1 ± 3.28 µM | 58.1 µM | 37.5 ± 4.01 µM | 37.5 µM | 46.7 ± 11 µM | 46.7 µM | 66.52 ± 0.04 µM | 66.5 µM | – |
| CC(C)c1cc2c(cc1O)[C@@]1(C)CCCC(C)(C)C1CC2O (stereo partly shown) [Compound 15, 7-hydroxyferruginol] | 75.1 ± 7.04 µM | 75.1 µM | 70.5 ± 7.21 µM | 85.6 ± 5.3 µM | 85.6 µM | 74.7 ± 11.1 µM | 74.7 µM | 78.2 ± 13.5 µM | 78.2 µM | 75.2 ± 1.02 µM | 75.2 µM | – |
| CC(C)c1ccc2c3c(ccc2c1)C(C)(C)CCC3 [Compound 18, simonellite] | – | – | – | – | – | – | – | – | – | – | – | GI50 [6]: > 100 µM; GI50 ([3]; Table 7, WST-8, 48 h exposure, mean ± S.D., read-out: Cytotoxic activity (GI50) PC-3): > 100 µM; GI50 ([4]; Table 7, WST-8, 48 h exposure, mean ± S.D., read-out: Cytotoxic activity (GI50) BxPC-3): > 100 µM; GI50 ([5]; Table 7, WST-8, 48 h exposure, mean ± S.D., read-out: Cytotoxic activity (GI50) PANC-1): > 100 µM; GI50 ([1]; Table 7, WST-8, 48 h exposure, mean ± S.D., read-out: Cytotoxic activity (GI50) A549): > 100 µM; GI50 (human leukemia (HL-60); Table 7, WST-8, 48 h exposure, mean ± S.D., read-out: Cytotoxic activity (GI50) HL-60): > 100 µM |
| CC(C)C1=C(O)C(=O)C2=C(CC[C@H]3C(C)(C)CCC[C@]23C)C1=O [Compound 20, royleanone] | – | – | 45.7 ± 2.32 µM | – | – | – | 51 µM | – | 52.6 µM | – | – | GI50 [3, 17]: 27.1 ± 11.8 µM; GI50 [4, 18]: 51 ± 10.4 µM; GI50 [5, 19]: 52.6 ± 18.8 µM; GI50 [1, 20]: 30.1 ± 3.64 µM; GI50 (human leukemia (HL-60); [21]): 36.3 ± 7.14 µM |
| CC(C)c1cc2c(c(O)c1O)[C@@]1(C)CCCC(C)(C)[C@@H]1CC2=O [Compound 12, 11-hydroxysugiol] | 35 ± 6.2 µM | 35 µM | 40.2 ± 0.91 µM | 41 ± 7.9 µM | 41 µM | 45 ± 8.33 µM | 45 µM | 43.1 ± 8.32 µM | 43.1 µM | 35.3 ± 0.63 µM | 35.3 µM | – |
| CC(C)c1cc2c(cc1O)[C@@]1(C)CCCC(C)(C)[C@@H]1CC2=O [Compound 13, sugiol] | – | – | – | – | – | – | – | – | – | – | – | GI50 ([6]; human, 48 h): > 100 µM; GI50 [3, 17]: > 100 µM; GI50 [4, 18]: 36.1 ± 1.5 µM; GI50 [5, 19]: 87.9 ± 11.2 µM; GI50 [1, 20]: 79.8 ± 2.18 µM; GI50 (human leukemia (HL-60); [21]): 68.6 ± 13.5 µM |
